Laboratory results from ChEMBL document CHEMBL5550189, “Discovery of GS-7682, a Novel 4'-Cyano-Modified C-Nucleoside Prodrug with Broad Activity against Pneumo- and Picornaviruses and Efficacy in RSV-Infected African Green Monkeys” (J Med Chem, 2024).
Active and inactive are the calls of the source. The calls are words filed in the database; no cut-off is given here.

Assays:
Influenza A virus = experiment: Anti-viral activity against Influenza A (H1N1) infected in MDCK cells by MTS assay; format: functional, organism-based; details: H
SARS-CoV-2 = experiment: Anti-viral activity against SARS-CoV-2 infected in human A549 cells expressing hACE2 by firefly reporter assay; format: functional, organism-based; details: Severe acute respiratory syndrome coronavirus 2, A549
[1] = Cytotoxicity against human RD cells by MTS assay; format: toxicity, cell-based
[2] = Distribution coefficient, log D of compound measured after 30 mins by HPLC/UV analysis; format: physicochemical; details: octanol/water
[3] = Drug concentration in lung of Cynomolgous monkey at lung-deposited dose of 4 mg/kg, IT measured after 24 hrs by LC-MS/MS analysis; format: ADME, organism-based, Macaca fascicularis; details: cynomolgus monkey, in vivo, other
[4] = Cytotoxicity against MDCK cells by MTS assay; format: toxicity, cell-based, Canis lupus familiaris; details: dog
[5] = test system: Respiratory syncytial virus; experiment: Antiviral activity against RSV A2 infected in human airway epithelium transwell culture assessed as decrease in viral RNA level by measuring log10 reduction in median viral load at 0.01 uM pretreated at apical side for 3 hrs followed by compound washout and subsequent viral infection at apical side for 3 hrs followed by removal of virus and recurrent addition of compound on day 1 and 2 at basolateral side measured on day 3 by RT-qPCR analysis; format: functional; details: time 75 hrs
[6] = Drug metabolism in African green monkey assessed as half life of (2R,3S,4R,5S)-5-(4-aminopyrrolo[2,1-f][1,2,4]triazin-7-yl)-3,4-dihydroxy-2-(hydroxymethyl)tetrahydrofuran-2-carbonitrile metabolite at lung-deposited dose of 5.9 mg/kg, IT measured after 24 hrs by LC-MS/MS analysis; format: ADME, organism-based; details: chlorocebus aethiops, in vivo, other
Enterovirus A71 = experiment: Anti-viral activity against EV-71 (H) infected in human RD cells by MTS assay; format: functional, organism-based; details: Enterovirus A
[7] = Cytotoxicity against Normal human bronchial epithelial cells; format: toxicity, cell-based, Epithelial cell
[8] = Half life in Cynomolgous monkey at lung-deposited dose of 4 mg/kg, IT measured after 24 hrs by LC-MS/MS analysis; format: ADME, organism-based, Macaca fascicularis; details: cynomolgus monkey, in vivo
[9] = AUC (0 to 24 hrs) in Cynomolgous monkey at lung-deposited dose of 4 mg/kg, IT measured after 24 hrs by LC-MS/MS analysis; format: ADME, organism-based, Macaca fascicularis; details: cynomolgus monkey, in vivo
[10] = Drug metabolism in Cynomolgous monkey assessed as AUC (0 to 24 hrs) of (2R,3S,4R,5S)-5-(4-aminopyrrolo[2,1-f][1,2,4]triazin-7-yl)-3,4-dihydroxy-2-(hydroxymethyl)tetrahydrofuran-2-carbonitrile metabolite at lung-deposited dose of 4 mg/kg, IT measured after 24 hrs by LC-MS/MS analysis; format: ADME, organism-based, Macaca fascicularis; details: cynomolgus monkey, in vivo, other
[11] = Drug metabolism in Cynomolgous monkey assessed as Cmax of (2R,3S,4R,5S)-5-(4-aminopyrrolo[2,1-f][1,2,4]triazin-7-yl)-3,4-dihydroxy-2-(hydroxymethyl)tetrahydrofuran-2-carbonitrile metabolite at 5 mg/kg, iv measured after 30 mins by LC-MS/MS analysis; format: ADME, organism-based, Macaca fascicularis; details: cynomolgus monkey, in vivo, 0.5 h
[12] = Prodrug conversion in D-HBE-COPD cells assessed as ((2R,3S,4R,5S)-5-(4-aminopyrrolo[2,1-f][1,2,4]triazin-7-yl)-2-cyano-3,4-dihydroxytetrahydrofuran-2-yl)methyl tetrahydrogen triphosphate formation measured per million cells at 1 uM measured after 48 hrs by LC-MS/MS analysis; format: ADME, cell-based; details: human
[13] = Drug metabolism in African green monkey assessed as AUC (0 to 24 hrs) of (2R,3S,4R,5S)-5-(4-aminopyrrolo[2,1-f][1,2,4]triazin-7-yl)-3,4-dihydroxy-2-(hydroxymethyl)tetrahydrofuran-2-carbonitrile metabolite at lung-deposited dose of 5.9 mg/kg, IT measured after 24 hrs by LC-MS/MS analysis; format: ADME, organism-based; details: chlorocebus aethiops, in vivo, other
[14] = Cytotoxicity against human A549 cells expressing hACE2 incubated for 28 hrs by Cell Titer Glo assay; format: toxicity, cell-based
[15] = Cytotoxicity against human Hep-2 cells incubated for 4 to 5 days by Cell Titer Glo assay; format: toxicity, cell-based; details: time 4-5 day
Human metapneumovirus = experiment: Anti-viral activity against hMPV CAN99-81 (A1 genotype) infected in rhesus monkey LLC-MK2 cells incubated for 90 mins; format: functional, organism-based; details: LLC-MK2, 1.5 h
[16] = Selectivity index, ratio of CC50 for human HEp-2 cells to EC50 for RSV A2 infected in human HEp-2 cells; format: toxicity, cell-based; details: read-out: Ratio CC50/EC50
[17] = AUC (0 to 24 hrs) in Cynomolgous monkey at 5 mg/kg, iv measured after 30 mins by LC-MS/MS analysis; format: ADME, organism-based, Macaca fascicularis; details: cynomolgus monkey, in vivo
[18] = test system: Respiratory syncytial virus; experiment: Antiviral activity against RSV A2 infected in human HEp-2 cells incubated for 4 days by Cell Titer Glo assay; format: functional, organism-based; details: A2, HEp-2, 96 h
[19] = Drug metabolism in African green monkey assessed as Cmax of (2R,3S,4R,5S)-5-(4-aminopyrrolo[2,1-f][1,2,4]triazin-7-yl)-3,4-dihydroxy-2-(hydroxymethyl)tetrahydrofuran-2-carbonitrile metabolite at lung-deposited dose of 5.9 mg/kg, IT measured after 24 hrs by LC-MS/MS analysis; format: ADME, organism-based; details: chlorocebus aethiops, in vivo, other
[20] = Drug metabolism in Cynomolgous monkey assessed as Cmax of (2R,3S,4R,5S)-5-(4-aminopyrrolo[2,1-f][1,2,4]triazin-7-yl)-3,4-dihydroxy-2-(hydroxymethyl)tetrahydrofuran-2-carbonitrile metabolite at lung-deposited dose of 4 mg/kg, IT measured after 24 hrs by LC-MS/MS analysis; format: ADME, organism-based, Macaca fascicularis; details: cynomolgus monkey, in vivo, other
[21] = Drug concentration in lung of African green monkey at lung-deposited dose of 5.9 mg/kg, IT measured after 24 hrs by LC-MS/MS analysis; format: ADME, organism-based; details: chlorocebus aethiops, in vivo, other
[22] = test system: Respiratory syncytial virus; experiment: Antiviral activity against RSV A2 infected in human airway epithelium transwell culture assessed as decrease in viral RNA level by measuring log10 reduction in median viral load at 0.05 uM pretreated at apical side for 3 hrs followed by compound washout and subsequent viral infection at apical side for 3 hrs followed by removal of virus and recurrent addition of compound on day 0 at apical side measured on day 3 by RT-qPCR analysis; format: functional; details: time 75 hrs
[23] = Prodrug conversion in Normal human bronchial epithelial cells assessed as ((2R,3S,4R,5S)-5-(4-aminopyrrolo[2,1-f][1,2,4]triazin-7-yl)-2-cyano-3,4-dihydroxytetrahydrofuran-2-yl)methyl tetrahydrogen triphosphate formation measured per million cells at 10 uM incubated for 2 hrs by LC-MS/MS analysis; format: ADME, cell-based; details: epithelial cell
[24] = test system: Respiratory syncytial virus; experiment: Antiviral activity against RSV infected in African green monkey assessed as reduction in viral load in BAL at lung-deposited dose of 1.6 to 7.6 mg/kg, IT qd for 6 days measured on day 11 by RT-qPCR analysis; format: functional, organism-based; details: dose 1.6-7.6 mg/kg, time 11.0 day
[25] = test system: Respiratory syncytial virus; experiment: Antiviral activity against RSV A2 infected in D-HBE-COPD cells assessed as inhibition of intracellular virus replication; format: functional, organism-based; details: human respiratory syncytial virus
[26] = Half life in Cynomolgous monkey at 5 mg/kg, iv measured after 30 mins by LC-MS/MS analysis; format: ADME, organism-based, Macaca fascicularis; details: cynomolgus monkey, in vivo
[27] = test system: Respiratory syncytial virus; experiment: Antiviral activity against RSV infected in African green monkey assessed as reduction in viral load in BAL at lung-deposited dose of 1.6 to 7.6 mg/kg, IT qd for 6 days measured on day 7 to 9 by RT-qPCR analysis; format: functional, organism-based; details: dose 1.6-7.6 mg/kg, time 9.0 day

COC(=O)[C@H](C)N[P@](=O)(OC[C@@]1(C#N)O[C@@H](c2ccc3c(N)ncnn23)[C@H](OC(=O)C(C)C)[C@@H]1OC(=O)C(C)C)Oc1ccccc1
EC50 (Influenza A virus): > 2000 nM
EC50 (SARS-CoV-2): 4750 nM
CC50 [1]: > 2000 nM
logD at 0.5 h [2]: 3
Drug uptake [3]: 20.5 nmol
CC50 [4]: > 2000 nM
Activity [5]: 0.2 log10/ml
t1/2 [6]: 14.7 h
EC50 (Enterovirus A71): 83 nM
CC50 [7]: 8300 nM
half-life [8]: 13 h
AUC(0-t) at 24 h [9]: 1.86 µM·h
AUC [10]: 2.55 µM·h
Cmax [11]: 961 nM
Drug metabolism [12]: 85 pM
AUC [13]: 3.39 µM·h
CC50 at 28 h [14]: 21100 nM
CC50 [15]: 22700 nM
EC50 (Human metapneumovirus): 210 nM
selectivity ratio [16]: 500
AUC(0-t) at 0.5 h [17]: 0.962 µM·h
EC50 [18]: 46 nM
Cmax [19]: 220 nM
Cmax [20]: 140 nM
Drug uptake [21]: 24.6 nmol
Activity [22]: 0.2 log10/ml
Drug metabolism [23]: 916 pM
Activity [24]: Active
IC50 [25]: < 85 nM
half-life [26]: 0.34 h
Activity [27]: inactive
